Columns and labels:
[1] = pH of the resulting liquid (pH meter Mettler Toledo Seven Multi, USP<791>); conditions: for pH trial 1 / pH trial 2: Table 2, 30 ml tap water, room temperature
Experimental: (§1) To evaluate dissolution, the components were weighed and put in centrifuge tubes containing 30 ml of tap water at room temperature. The tubes were gently stirred by hand (up and down movements) for 30 seconds to 1 minute. The dispersions were then assessed visually for turbidity and presence of particles in suspension or precipitate. pH was also assessed using pH meter Mettler Toledo Seven Multi and following USP<791>method.
(§2) Visual solubility tests were done in duplicate using 3 different calcium sources. The quantity of material was adjusted in order to maintain a consistent calcium content from each different salt.
The following trials were performed in order to assess visual solubility and pH levels of various formulations.

[2] = Visual solubility test: components mixed in 30 ml tap water, assessed visually for turbidity, particles in suspension or precipitate; conditions: Table 2, calcium sources at consistent calcium content, room temperature, same observation for both trials
Experimental: Table 1 provides a description of the visual solubility tests performed using various components (including a commercial sample), with the quantities of each product weighed, and visual observations after the components were mixed in water.
as §1, §2
The following trials were performed in order to assess visual solubility and pH levels of various formulations. […] All lots were prepared by dry blending by hand of ingredients using spatula.

| Compound | pH trial 1 [1] | pH trial 2 [1] | pH ([1]; Tables 3-5, calcium salt with dibasic and monobasic sodium phosphate in 30 ml water) | Observations [2] |
| --- | --- | --- | --- | --- |
| Calcium glycerophosphate | 8.08 | 8.07 | higher pH | – |
| CC(O)C(=O)[O-].O=C([O-])[C@H](O)[C@@H](O)[C@H](O)[C@H](O)CO.[Ca+2] [Calcium lactate gluconate] | 7.73 | 7.74 | – | sufficiently soluble |
| O.O.[Ca+2].[Cl-].[Cl-] [Calcium Chloride dihydrate] | 7.65 | 7.67 | – | – |
